Data published in patent US20240268395A1, “ANTIFUNGAL PROTEIN COMPOSITION” (GEAENZYMES CO., priority 2019, published 2024).
Ends that are not written are not given here.

Experiments:
[1] = system: Aspergillus niger; assay: Agar dilution assay, inhibition of mycelial growth from spores; format: cell-based; conditions: fused to carrier solubility protein
Source text: FIG. 8. Agar dilution assay to assess the antifungal activity of the peptide-protein fusion SEQ ID NO: 1-MBP against Aspergillus niger. Left, representative images of agar dilution assays performed with serial dilutions of antifungal peptide-MBP fusions added to agar before solidification. Assays tested for the inhibition of mycelial growth from A. niger spores. Protein storage buffer was used as a negative control for growth inhibition, and Zeocin was used as positive control. Right, IC50 values for the peptide-protein fusion SEQ ID NO: 1-MBP. Aggregated results from up to three independent experiments were used to interpolate IC50 from the fitted curve.
FIGS. 9A-9B. Agar dilution assay comparing the antifungal activity of the peptide-protein fusions SEQ ID NO: 28-MBP and SEQ ID NO: 29-MBP against Aspergillus niger. FIG. 9A: Representative images of agar dilution assays performed with serial dilutions of antifungal peptide-MBP fusions added to agar before solidification. Assays tested for the inhibition of mycelial growth from A. niger spores. […]
To further test the versatility of antifungal peptides, these were genetically fused to a variety of different carrier solubility proteins, and their antifungal activity tested. […] Mycelium length was then estimated and analyzed (FIGS. 3, 4, and 5). […]

[2] = system: Trichoderma reesei, Fusarium oxysporum, Rhizopus oligosporum, Aspergillus niger and two environmental isolates; assay: Fungal inhibition in agar plates containing embedded antifungal peptides; format: cell-based; conditions: 150 μg/ml, without carrier protein
Experimental: FIG. 1. Fungal inhibition in agar plates containing a composition comprising Antifungal Peptide SEQ ID NO: 1 after 2 days at 30° C. Fungal strains inoculated in the plate: 1: Trichoderma reesei; 2: Fusarium oxysporum; 3: Rhizopus oligosporum; 4: household environmental isolated; 5: Aspergillus niger; 6: bread contamination environmental isolate. Panel A: 150 μg/ml of peptidic antifungal composition with six histidine amino-terminal residues. Panel B: 150 μg/ml of peptidic antifungal composition with six histidine amino-terminal residues pre-treated for 10 minutes at 90° C. Panel C: 175 μg/ml of peptidic antifungal composition fused to a carrier protein. Panel D: negative control without peptidic antifungal composition.
Antifungal peptide having an amino acid sequence as set forth in SEQ ID NO: 1 (Table 1) was genetically fused to 6 amino-terminal histidine residues, expressed and produced in a recombinant manner in Escherichia coli, and after cell lysis, peptide purified using immobilized metal affinity chromatography (IMAC) with nickel resin. A second variant of antifungal peptide having an amino acid sequence as set forth in SEQ ID NO: 1 was also generated, fusing the antifungal peptide to a carrier protein. […] Fungal inhibition was then assessed in agar plates containing embedded antifungal peptides, incubating 2 days at 30° C. […]

Sequence | potency at sub-MIC concentrations (reflected in the IC50), comparison of the three peptides [1] | fungal growth in agar plates compared with control ([2]; six histidine amino-terminal residues, 2 days at 30° C.) | activity after pre-incubation at 90° C. (thermostability) ([2]; pre-treated for 10 minutes at 90° C.)
KRCGSQAGCPNGHCCSQYGFCGFGPEYCGRG [SEQ ID NO: 29] | highest potency | – | –
VGECVRGRCPSGMCCSQFGYCGKGPKYCGR (not fully specified (N-terminus); cysteine pairing not given here) [SEQ ID NO: 1, tested genetically fused to 6 amino-terminal histidine residues, produced recombinantly in Escherichia coli] | – | impacts the growth of all fungi when compared with the control condition, although to a lesser extent with the environmental fungal isolates | does not impair its activity
